Literature values in US20260001962A1, “COMBINATION THERAPY METHODS WITH T-CELL ENGAGING MOLECULES FOR TREATMENT OF PROSTATE CANCER” (AMGEN INC., priority 2022, published 2026).
“Also recorded” adds a separate entry of the source.

How the values were obtained:
prostate cancer cells [1] = conditions: reported in literature
prostate cancer cells [2] = conditions: in vitro; Deegen et al. 2021

CO[C@H]1C(=O)[C@]2(C)[C@@H](OC)C[C@H]3OC[C@@]3(OC(C)=O)[C@H]2[C@H](OC(=O)c2ccccc2)[C@]2(O)C[C@H](OC(=O)[C@H](O)[C@@H](NC(=O)OC(C)(C)C)c3ccccc3)C(C)=C1C2(C)C [Cabazitaxel]
increase in median survival compared with mitoxantrone (mCRPC patients; mCRPC): 2.4 months

[223Ra] [Radium-223]
survival (mCRPC patients; patients with bone metastases, combined with best standard care, vs 11.3): 14.9 months

CNC(=O)c1ccc(N2C(=S)N(c3ccc(C#N)c(C(F)(F)F)c3)C(=O)C2(C)C)cc1F [enzalutamide]
expression of PSMA on prostate cancer cells (prostate cancer cells [1]): rapidly upregulate expression of PSMA
OS (mCRPC patients; first line mCRPC setting, vs 31.3): 35.3 months
cytotoxicity of prostate cancer cells induced by PSMA-targeted T-cell engager (AMG 160) (prostate cancer cells [2]): enhances cytotoxicity of prostate cancer cells; also recorded: enhance AMG 160-mediated cytotoxicity of prostate cancer cells
